These results are taken from patent US10428074B2, “Pyrrole heteroaryl ring derivative and method of use thereof” (Jiangsu Hengrui Medicine Co., Ltd., priority 2011, dated 2019).

SMILES strings stand for the structures.

One test deals with T cells. The test can be described thus: Proliferation inhibition assay on T cells (PBMC, anti-CD3, IL-2). The format is cell-based, human. Particulars: Homo sapiens, T-cell, 72 h, IL-2 10 ng/mL. From the text:
The following in vitro assay is to determine the activity of the compounds of the present invention for inhibiting the proliferation of T cells.
The activity is represented by the IC50 value.
The general procedures of the assay are given as follows: first, the PBMC cell line (purchased from Shanghai Blood Center) was centrifuged, the supernatant was removed, and the cells counted. […] Then, the cells were washed 3 times, resuspended, diluted to 2×10^6/mL, and then mixed with recombinant human IL-2 (purchased from Peprotech, Catalog Number: 200-02) to a concentration of 10 ng/mL, and cultured for another 3 days. The cells were washed again 3 times, and diluted to 5×10^5/mL. 80 μL of the cells were seeded in each well of a 96-well cell culture plate. […] To he control wells, 10 μL culture medium were added. The plate was placed in an incubator. After incubating for 1 hr, negative control wells were mixed with 10 μL of culture medium, and the rest of the wells were mixed with IL-2 to a concentration of 10 ng/mL, and incubated continuously for 72 hours. […] IC50 values were calculated from the data of inhibition rates at various concentrations of the test compounds.
For the compound `CN(c1ncnc2[nH]ccc12)[C@H]1C[C@H]2CNC(=O)C[C@H]2C1` [Example 40, (4aR,6R,7aR)-6-(Methyl(7H-pyrrolo[2,3-d]pyrimidin-4-yl)amino) hexahydro-1H-cyclopenta[c]pyridin-3(2H)-one], the IC50 (in general, the concentration at which inhibition is half-maximal) was determined as 48 nM.

In turn, `CN(c1ncnc2[nH]ccc12)[C@H]1C[C@@H]2CN(CC(F)(F)F)C[C@@H]2C1` [Example 56, N-methyl-N-((3aR,5S,6aS)-2-(2,2,2-trifluoroethyl)octahydrocyclopenta [c]pyrrol-5-yl)-7H-pyrrolo[2,3-d]pyrimidin-4-amine] displayed an IC50 of 119 nM.

Turning to `CN(c1ncnc2[nH]ccc12)[C@H]1C[C@@H]2CN(S(=O)(=O)C3CC3)C[C@@H]2C1` [Example 15, N-((3aR,5S,6aS)-2-(Cyclopropylsulfonyl)octahydrocyclopenta[c]pyrrol-5-yl)-N-methyl-7H-pyrrolo[2,3-d]pyrimidin-4-amine], the half-inhibitory concentration (IC50) came to 853 nM.

As to `COC(=O)CN1C[C@H]2C[C@H](N(C)c3ncnc4[nH]ccc34)C[C@H]2C1` [Example 24, Methyl 2-((3aR,5S,6aS)-5-(methyl(7H-pyrrolo[2,3-d]pyrimidin-4-yl)amino)hexahydrocyclopenta[c]pyrrol-2(1H)-yl)acetate], the IC50 worked out at 851 nM.

On to `CN(c1ncnc2[nH]ccc12)[C@@H]1CC2CNC(=O)CC2C1` (stereo partly drawn) [Example 148, (6S)-6-(methyl(7H-pyrrolo[2,3-d]pyrimidin-4-yl)amino) hexahydro-1H-cyclopenta[c] pyridin-3(2H)-one], for which the concentration for half-maximal inhibition (IC50) was found to be 48 nM.

Still in this test, the particulars now being: Homo sapiens, T-cell; IL-2 10 ng/mL, 72 hours.
Compound `CN(c1ncnc2[nH]ccc12)[C@H]1C[C@@H]2CN(C(=O)CCC#N)C[C@@H]2C1` [Example 22, 4-((3aR,5S,6aS)-5-(Methyl(7H-pyrrolo[2,3-d]pyrimidin-4-yl)amino)hexahydrocyclopenta[c]pyrrol-2(1H)-yl)-4-oxobutanenitrile] came in with a half-maximal inhibitory concentration (IC50) of 281 nM.

For the compound `CCc1nsc(NC(=O)N2C[C@H]3C[C@H](N(C)c4ncnc5[nH]ccc45)C[C@H]3C2)n1` [Example 121, (3aR,5S,6aS)-N-(3-ethyl-1,2,4-thiadiazol-5-yl)-5-(methyl(7H-pyrrolo[2,3-d]pyrimidin-4-yl)amino)hexahydrocyclopenta[c] pyrrole-2(1H)-carboxamide], the IC50 came to 24 nM.

`CN(c1ncnc2[nH]ccc12)[C@@H]1C[C@@H]2CN(C(=O)CO)C[C@@H]2C1` [Example 23, 2-Hydroxy-1-((3aR,5R,6aS)-5-(methyl(7H-pyrrolo[2,3-d]pyrimidin-4-yl)amino)hexahydrocyclopenta[c]pyrrol-2(1H)-yl)ethanone] displayed a 50% inhibitory concentration (IC50) of 543 nM.

As for `CN(c1ncnc2[nH]ccc12)[C@@H]1C[C@@H]2CCN(C(=O)Nc3nncs3)C[C@@H]2C1` [Example 150, (4aS,6R,7aR)-6-(methyl(7H-pyrrolo[2,3-d]pyrimidin-4-yl)amino)-N-(1,3,4-thiadiazol-2-yl)hexahydro-1H-cyclopenta[c]pyridine-2(3H)-carboxamide], inhibition was half-maximal at 221 nM (IC50).

Compound `CCC(=O)N1C[C@H]2C[C@H](N(C)c3ncnc4[nH]ccc34)C[C@H]2C1` [Example 84, 1-((3aR,5S,6aS)-5-(methyl(7H-pyrrolo[2,3-d]pyrimidin-4-yl)amino)hexahydrocyclopenta[c]pyrrol-2(1H)-yl)propan-1-one] showed an IC50 of 509 nM.

`CN(c1ncnc2[nH]ccc12)[C@H]1C[C@@H]2CN(C(=O)C3CC3)C[C@@H]2C1` [Example 13, Cyclopropyl((3aR,5S,6aS)-5-(methyl(7H-pyrrolo[2,3-d]pyrimidin-4-yl)amino)hexahydrocyclopenta[c]pyrrol-2(1H)-yl)methanone] had an IC50 of 754 nM.

Still in this test, the particulars now being: IL-2 10 ng/mL, 72 hours; read-out: IC50(T cell).
Consider `CN(c1ncnc2[nH]ccc12)[C@@H]1C[C@H]2CN(C(=O)CO)C[C@@]2(C)C1` (racemic) [Example 14, 2-Hydroxy-1-((3aS,5R,6aR/3aS,5R,6aR)-3a-methyl-5-(methyl(7H-pyrrolo[2,3-d]pyrimidin-4-yl)amino)hexahydrocyclopenta[c]pyrrol-2(1H)-yl)ethanone], for which the IC50 came out at 712 nM.
